Key:
[1] = test system: rat brown adipose tissue; assay: Ex vivo model of thermogenesis: oxygen consumption of a sample of rat brown adipose tissue; format: cell-based
Experimental: These studies were carried out on an ex vivo pharmacological model of thermogenesis. The principle is to measure the oxygen consumption of a sample of rat brown adipose tissue; the oxygen consumption is proportional to the thermogenesis induced in the adipose tissue by the various test substances.

[2] = test system: thermogenesis; assay: Increase in thermogenesis in man (total expenditure of energy over 24 h, 10 volunteers); format: in vivo
Experimental: The increase in thermogenesis in man by an extract of green tea according to the invention was also determined. A similar study was carried out on 10 volunteers receiving at each meal either 500 mg of an extract of green tea (corresponding to 125 mg of catechols and 50 mg of caffeine), or 50 mg of caffeine, or a placebo.

| SMILES | Increase in oxygen consumption ([1]; Caffeine 0, EGCG 100 μM) | Increase in oxygen consumption ([1]; Caffeine 0, EGCG 200 μM) | Increase in oxygen consumption ([1]; Caffeine 100 μM, EGCG 0) | total expenditure of energy over 24 h ([2]; 50 mg of caffeine at each meal, placebo 9538 kJ) [kJ] | effect on thermogenesis, result in words ([2]; caffeine alone at the same dose as provided by the extract) |
| --- | --- | --- | --- | --- | --- |
| O=C(O[C@@H]1Cc2c(O)cc(O)cc2O[C@@H]1c1cc(O)c(O)c(O)c1)c1cc(O)c(O)c(O)c1 [EGCG, epigallocatechol gallate] | no | +40% | – | – | – |
| Cn1c(=O)c2c(ncn2C)n(C)c1=O [caffeine] | – | – | no | 9599 | does not increase thermogenesis |
